Experimental data reported in ChEMBL document CHEMBL3792297, “Studies on phenothiazines: New microtubule-interacting compounds with phenothiazine A-ring as potent antineoplastic agents” (Bioorg Med Chem, 2016).

Experiments:
[1] = Growth inhibition of human HCC2998 cells at 10 uM after 48 hrs by SRB assay relative to control; format: functional; settings: HCC 2998, 48 h, read-out: GI
[2] = Growth inhibition of human HCT116 cells at 10 uM after 48 hrs by SRB assay relative to control; format: functional; settings: HCT-116, 48 h, read-out: GI
[3] = Growth inhibition of human HCT15 cells at 10 uM after 48 hrs by SRB assay relative to control; format: functional; settings: HCT-15, 48 h, read-out: GI
HT-29 = experiment: Growth inhibition of human HT-29 cells at 10 uM after 48 hrs by SRB assay relative to control; format: functional; settings: HT-29, 48 h, read-out: GI
KM12 = experiment: Growth inhibition of human KM12 cells at 10 uM after 48 hrs by SRB assay relative to control; format: functional; settings: KM12, 48 h, read-out: GI
[4] = Growth inhibition of human SW620 cells at 10 uM after 48 hrs by SRB assay relative to control; format: functional; settings: SW-620, 48 h, read-out: GI
MDA-MB-435 = experiment: Growth inhibition of human MDA-MB-435 cells at 10 uM after 48 hrs by SRB assay relative to control; format: functional; settings: MDA-MB-435, 48 h, read-out: GI
SK-MEL-2 = experiment: Growth inhibition of human SK-MEL-2 cells at 10 uM after 48 hrs by SRB assay relative to control; format: functional; settings: SK-MEL-2, 48 h, read-out: GI
SK-MEL-28 = experiment: Growth inhibition of human SK-MEL-28 cells at 10 uM after 48 hrs by SRB assay relative to control; format: functional; settings: SK-MEL-28, 48 h, read-out: GI
[5] = Growth inhibition of human UACC257 cells at 10 uM after 48 hrs by SRB assay relative to control; format: functional; settings: UACC-257, 48 h, read-out: GI
SK-MEL-5 = experiment: Growth inhibition of human SK-MEL-5 cells at 10 uM after 48 hrs by SRB assay relative to control; format: functional; settings: SK-MEL-5, 48 h, read-out: GI
[6] = Growth inhibition of human OVCAR3 cells at 10 uM after 48 hrs by SRB assay relative to control; format: functional; settings: OVCAR-3, 48 h, read-out: GI
[7] = Growth inhibition of human NCI-ADR-RES cells at 10 uM after 48 hrs by SRB assay relative to control; format: functional; settings: read-out: GI
[8] = Growth inhibition of human IGROV1 cells at 10 uM after 48 hrs by SRB assay relative to control; format: functional; settings: IGROV-1, 48 h, read-out: GI
A498 = experiment: Growth inhibition of human A498 cells at 10 uM after 48 hrs by SRB assay relative to control; format: functional; settings: A498, 48 h, read-out: GI
[9] = Growth inhibition of human UO31 cells at 10 uM after 48 hrs by SRB assay relative to control; format: functional; settings: UO-31, 48 h, read-out: GI
786-0 = experiment: Growth inhibition of human 786-0 cells at 10 uM after 48 hrs by SRB assay relative to control; format: functional; settings: 786-0, 48 h, read-out: GI
ACHN = experiment: Growth inhibition of human ACHN cells at 10 uM after 48 hrs by SRB assay relative to control; format: functional; settings: read-out: GI
[10] = Growth inhibition of human DU145 cells at 10 uM after 48 hrs by SRB assay relative to control; format: functional; settings: DU-145, 48 h, read-out: GI
[11] = Growth inhibition of human SF268 cells at 10 uM after 48 hrs by SRB assay relative to control; format: functional; settings: SF-268, 48 h, read-out: GI
[12] = Growth inhibition of human SF295 cells at 10 uM after 48 hrs by SRB assay relative to control; format: functional; settings: SF-295, 48 h, read-out: GI
[13] = Growth inhibition of human SF539 cells at 10 uM after 48 hrs by SRB assay relative to control; format: functional; settings: SF-539, 48 h, read-out: GI
[14] = Growth inhibition of human SNB75 cells at 10 uM after 48 hrs by SRB assay relative to control; format: functional; settings: SNB-75, 48 h, read-out: GI
MDA-MB-231 = experiment: Growth inhibition of human MDA-MB-231 cells at 10 uM after 48 hrs by SRB assay relative to control; format: functional; settings: MDA-MB-231, 48 h, read-out: GI
[15] = Growth inhibition of human Hs 578T cells at 10 uM after 48 hrs by SRB assay relative to control; format: functional; settings: read-out: GI
[16] = Growth inhibition of human BT549 cells at 10 uM after 48 hrs by SRB assay relative to control; format: functional; settings: BT-549, 48 h, read-out: GI
T47D = experiment: Growth inhibition of human T47D cells at 10 uM after 48 hrs by SRB assay relative to control; format: functional; settings: read-out: GI
MDA-MB-468 = experiment: Growth inhibition of human MDA-MB-468 cells at 10 uM after 48 hrs by SRB assay relative to control; format: functional; settings: MDA-MB-468, 48 h, read-out: GI
Ovis aries = organism: Ovis aries; experiment: Inhibition of sheep brain tubulin polymerization at 100 uM by DAPI staining-based fluorimetric method
[17] = Growth inhibition of human HL-60(TB) cells at 10 uM after 48 hrs by SRB assay relative to control; format: functional; settings: HL-60, 48 h, read-out: GI
K562 = experiment: Growth inhibition of human K562 cells at 10 uM after 48 hrs by SRB assay relative to control; format: functional; settings: K562, 48 h, read-out: GI
[18] = Growth inhibition of human RPMI8226 cells at 10 uM after 48 hrs by SRB assay relative to control; format: functional; settings: RPMI-8226, 48 h, read-out: GI
SR = experiment: Growth inhibition of human SR cells at 10 uM after 48 hrs by SRB assay relative to control; format: functional; settings: read-out: GI
A549 = experiment: Growth inhibition of human A549 cells at 10 uM after 48 hrs by SRB assay relative to control; format: functional; settings: A549, 48 h, read-out: GI
[19] = Growth inhibition of human HOP92 cells at 10 uM after 48 hrs by SRB assay relative to control; format: functional; settings: HOP-92, 48 h, read-out: GI
NCI-H226 = experiment: Growth inhibition of human NCI-H226 cells at 10 uM after 48 hrs by SRB assay relative to control; format: functional; settings: NCI-H226, 48 h, read-out: GI
NCI-H23 = experiment: Growth inhibition of human NCI-H23 cells at 10 uM after 48 hrs by SRB assay relative to control; format: functional; settings: NCI-H23, 48 h, read-out: GI
NCI-H322M = experiment: Growth inhibition of human NCI-H322M cells at 10 uM after 48 hrs by SRB assay relative to control; format: functional; settings: read-out: GI
NCI-H522 = experiment: Growth inhibition of human NCI-H522 cells at 10 uM after 48 hrs by SRB assay relative to control; format: functional; settings: NCI-H522, 48 h, read-out: GI

O=C(c1ccc(F)c(Cl)c1)N1c2ccccc2Sc2ccccc21
inhibition of growth at 10 µM [1]: 38%
inhibition of growth at 10 µM [2]: 69%
inhibition of growth at 10 µM [3]: 73%
inhibition of growth at 10 µM (HT-29): 64%
inhibition of growth at 10 µM (KM12): 60%
inhibition of growth at 10 µM [4]: 66%
inhibition of growth at 10 µM (MDA-MB-435): 92%
inhibition of growth at 10 µM (SK-MEL-2): 35%
inhibition of growth at 10 µM (SK-MEL-28): 38%
inhibition of growth at 10 µM [5]: 39%
inhibition of growth at 10 µM (SK-MEL-5): 66%
inhibition of growth at 10 µM [6]: 37%
inhibition of growth at 10 µM [7]: 60%
inhibition of growth at 10 µM [8]: 29%
inhibition of growth at 10 µM (A498): 38%
inhibition of growth at 10 µM [9]: 27%
inhibition of growth at 10 µM (786-0): 20%
inhibition of growth at 10 µM (ACHN): 0%
inhibition of growth at 10 µM [10]: 10%
inhibition of growth at 10 µM [11]: 33%
inhibition of growth at 10 µM [12]: 36%
inhibition of growth at 10 µM [13]: 38%
inhibition of growth at 10 µM [14]: 31%
inhibition of growth at 10 µM (MDA-MB-231): 39%
inhibition of growth at 10 µM [15]: 21%
inhibition of growth at 10 µM [16]: 42%
inhibition of growth at 10 µM (T47D): 39%
inhibition of growth at 10 µM (MDA-MB-468): 37%
inhibition (Ovis aries): 42%
inhibition of growth at 10 µM [17]: 69%
inhibition of growth at 10 µM (K562): 79%
inhibition of growth at 10 µM [18]: 47%
inhibition of growth at 10 µM (SR): 66%
inhibition of growth at 10 µM (A549): 34%
inhibition of growth at 10 µM [19]: 63%
inhibition of growth at 10 µM (NCI-H226): 23%
inhibition of growth at 10 µM (NCI-H23): 21%
inhibition of growth at 10 µM (NCI-H322M): 0%
inhibition of growth at 10 µM (NCI-H522): 57%

COc1ccc(C(=O)N2c3ccccc3Sc3ccccc32)c(C(F)(F)F)c1
inhibition of growth at 10 µM [1]: 74%
inhibition of growth at 10 µM [2]: 93%
inhibition of growth at 10 µM [3]: 82%
inhibition of growth at 10 µM (HT-29): 97%
inhibition of growth at 10 µM (KM12): 82%
inhibition of growth at 10 µM [4]: 75%
inhibition of growth at 10 µM (MDA-MB-435): 100%
inhibition of growth at 10 µM (SK-MEL-2): 53%
inhibition of growth at 10 µM (SK-MEL-28): 48%
inhibition of growth at 10 µM [5]: 38%
inhibition of growth at 10 µM (SK-MEL-5): 95%
inhibition of growth at 10 µM [6]: 100%
inhibition of growth at 10 µM [7]: 97%
inhibition of growth at 10 µM [8]: 62%
inhibition of growth at 10 µM (A498): 91%
inhibition of growth at 10 µM [9]: 60%
inhibition of growth at 10 µM (786-0): 61%
inhibition of growth at 10 µM (ACHN): 68%
inhibition of growth at 10 µM [10]: 86%
inhibition of growth at 10 µM [11]: 65%
inhibition of growth at 10 µM [12]: 95%
inhibition of growth at 10 µM [13]: 100%
inhibition of growth at 10 µM [14]: 71%
inhibition of growth at 10 µM (MDA-MB-231): 76%
inhibition of growth at 10 µM [15]: 76%
inhibition of growth at 10 µM [16]: 89%
inhibition of growth at 10 µM (T47D): 48%
inhibition of growth at 10 µM (MDA-MB-468): 70%
inhibition (Ovis aries): 80%
inhibition of growth at 10 µM [17]: 98%
inhibition of growth at 10 µM (K562): 100%
inhibition of growth at 10 µM [18]: 86%
inhibition of growth at 10 µM (SR): 84%
inhibition of growth at 10 µM (A549): 75%
inhibition of growth at 10 µM [19]: 85%
inhibition of growth at 10 µM (NCI-H226): 87%
inhibition of growth at 10 µM (NCI-H23): 76%
inhibition of growth at 10 µM (NCI-H322M): 47%
inhibition of growth at 10 µM (NCI-H522): 98%

O=C(c1ccc(Cl)cc1Cl)N1c2ccccc2Sc2ccccc21
inhibition of growth at 10 µM [1]: 35%
inhibition of growth at 10 µM [2]: 77%
inhibition of growth at 10 µM [3]: 70%
inhibition of growth at 10 µM (HT-29): 52%
inhibition of growth at 10 µM (KM12): 50%
inhibition of growth at 10 µM [4]: 62%
inhibition of growth at 10 µM (MDA-MB-435): 52%
inhibition of growth at 10 µM (SK-MEL-2): 21%
inhibition of growth at 10 µM (SK-MEL-28): 35%
inhibition of growth at 10 µM [5]: 36%
inhibition of growth at 10 µM (SK-MEL-5): 65%
inhibition of growth at 10 µM [6]: 41%
inhibition of growth at 10 µM [7]: 39%
inhibition of growth at 10 µM [8]: 39%
inhibition of growth at 10 µM (A498): 31%
inhibition of growth at 10 µM [9]: 35%
inhibition of growth at 10 µM (786-0): 33%
inhibition of growth at 10 µM (ACHN): 39%
inhibition of growth at 10 µM [10]: 35%
inhibition of growth at 10 µM [11]: 50%
inhibition of growth at 10 µM [12]: 47%
inhibition of growth at 10 µM [13]: 58%
inhibition of growth at 10 µM [14]: 40%
inhibition of growth at 10 µM (MDA-MB-231): 31%
inhibition of growth at 10 µM [15]: 4%
inhibition of growth at 10 µM [16]: 45%
inhibition of growth at 10 µM (T47D): 33%
inhibition of growth at 10 µM (MDA-MB-468): 49%
inhibition (Ovis aries): 44%
inhibition of growth at 10 µM [17]: 64%
inhibition of growth at 10 µM (K562): 100%
inhibition of growth at 10 µM [18]: 45%
inhibition of growth at 10 µM (SR): 68%
inhibition of growth at 10 µM (A549): 46%
inhibition of growth at 10 µM [19]: 28%
inhibition of growth at 10 µM (NCI-H226): 32%
inhibition of growth at 10 µM (NCI-H23): 26%
inhibition of growth at 10 µM (NCI-H322M): 15%
inhibition of growth at 10 µM (NCI-H522): 36%
